Results as given in US20130303737A1, “TARGETED SCHIFF BASE COMPLEXES” (NORTHWESTERN UNIVERSITY, priority 2009, published 2013).

Key:
Slug [1] = target: T1, Slug (Xenopus laevis, UniProt Q91924); experiment: In vivo assay: embryos injected with agent and Slug RNA, EMSA at blastula stage; settings: 10 fold excess (10 μM) injected
T1 construct: 5x myc; expressed in transfected cells; host or cells: Xenopus laevis embryos injected with in vitro transcribed mRNA; whole embryo lysate, stage 8 / blastula
T1 sequence (Q91924 1-266): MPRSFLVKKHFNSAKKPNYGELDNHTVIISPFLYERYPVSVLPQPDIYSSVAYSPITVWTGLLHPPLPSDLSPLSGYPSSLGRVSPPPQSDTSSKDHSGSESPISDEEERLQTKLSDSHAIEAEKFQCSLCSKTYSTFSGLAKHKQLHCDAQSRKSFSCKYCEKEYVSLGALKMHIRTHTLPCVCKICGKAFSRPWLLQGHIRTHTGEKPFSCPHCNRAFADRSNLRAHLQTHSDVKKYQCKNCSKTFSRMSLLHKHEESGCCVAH
Description: Pigmented and albino eggs were obtained and fertilized using standard protocol (Bellmeyer et al. (2003) Dev Cell 4(6):827-839, herein incorporated by reference in its entirety). All embryos are staged using the Niewenkoop-Faber method. Embryos were injected into one-cell at stage 1 in 0.4× modified ringer's (MR) solution with 3% Ficoll then transferred to 0.1×MR until harvesting. mRNA was transcribed in vitro using the SP6 Message Machine Kit (Ambion, Austin, Tex.). Concentrations of mRNA injected into one cell at the 2-cell stage range from 5-50 pg. XSip1 in the vector pCS2+ was obtained from A. Eisaki (Eisaki (2000) Biochem Biophys Res Commun 271(1):151-157, herein incorporated by reference in its entirety). cDNA was generated using PCR amplification and a high fidelity polymerase (Pfu; Roche, Indianapolis Ind.). cDNAs were cloned into a pCS2 variant that adds 5 myc tags to either the N- or C-terminus. All constructs were confirmed by sequencing using a ABI 3730 high-throughput DNA Sequencer.
For in vitro assays, whole embryo lysates were prepared by lysing 5 stage 8 embryos in 100 μL of lysis buffer (1×PBS, 1% NP-40 and Complete protease inhibitor cocktail tablets; Roche, Indianapolis, Ind.). […]

p105 = target: T2, p105 (Homo sapiens, UniProt P19838); experiment: EMSA, inhibition of p105 DNA-binding in embryo lysates; format: biochemical, Xenopus laevis; settings: high concentrations (150 μM per FIG. 4 legend)
T2 construct: 5x myc; expressed in transfected cells; host or cells: Xenopus laevis embryos injected with in vitro transcribed mRNA; whole embryo lysate
T2 sequence (P19838 1-968): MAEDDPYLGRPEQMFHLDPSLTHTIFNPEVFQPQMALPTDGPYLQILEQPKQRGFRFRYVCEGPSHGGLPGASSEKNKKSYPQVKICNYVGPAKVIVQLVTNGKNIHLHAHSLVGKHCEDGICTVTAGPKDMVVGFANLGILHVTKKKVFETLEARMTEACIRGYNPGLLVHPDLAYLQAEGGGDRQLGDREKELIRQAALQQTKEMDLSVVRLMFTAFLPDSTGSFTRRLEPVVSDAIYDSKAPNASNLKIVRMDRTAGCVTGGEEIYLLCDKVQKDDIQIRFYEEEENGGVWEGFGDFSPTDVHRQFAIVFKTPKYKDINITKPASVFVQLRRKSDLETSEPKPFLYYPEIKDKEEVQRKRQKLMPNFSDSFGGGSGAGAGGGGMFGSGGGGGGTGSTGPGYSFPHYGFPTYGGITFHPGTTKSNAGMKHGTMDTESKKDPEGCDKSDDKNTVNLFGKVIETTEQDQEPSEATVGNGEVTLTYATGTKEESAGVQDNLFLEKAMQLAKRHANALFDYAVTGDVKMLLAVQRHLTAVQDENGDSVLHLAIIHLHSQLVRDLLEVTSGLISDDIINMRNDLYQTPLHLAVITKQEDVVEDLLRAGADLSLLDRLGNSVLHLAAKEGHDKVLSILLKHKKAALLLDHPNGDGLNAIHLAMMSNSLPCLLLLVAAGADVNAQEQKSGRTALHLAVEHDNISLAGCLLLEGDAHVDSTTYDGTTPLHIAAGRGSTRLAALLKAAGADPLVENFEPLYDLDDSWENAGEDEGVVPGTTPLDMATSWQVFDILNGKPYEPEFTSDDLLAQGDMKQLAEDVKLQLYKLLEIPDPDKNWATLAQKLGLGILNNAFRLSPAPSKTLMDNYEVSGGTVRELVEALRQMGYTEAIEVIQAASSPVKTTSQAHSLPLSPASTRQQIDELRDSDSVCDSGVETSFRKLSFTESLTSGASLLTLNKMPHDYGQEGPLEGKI
Description: (§1) (A) Lysates of blastula stage embryos (lane 1) or embryos with overexpressed Slug protein (lanes 2-6) were incubated with increasing concentrations of Co(III)-Ebox of 0, 0.01, 0.1 and 1 μM for 15 min prior to challenge with a ^32P-labeled Ebox containing Slug DNA probe for 30 min. (B) Lysates of blastula stage embryos injected with Slug, Snail or Sip1 mRNA (lanes 1-9) or Slug, p105, MitF and Lef-1 mRNA (lanes 10-21) were incubated with 0 or 1 μM Co(III)-Ebox for 15 min prior to challenge with ^32P-labeled Slug probe for 30 min and analyzed by EMSA on a native gel. […] Samples were analyzed by EMSA on a native TBE/acrylamide gel.
(§2) Lysates of blastula stage embryos injected with Slug mRNA were incubated with increasing concentrations of Co(1II)-Schiff base of 0, 1.5, 5, 15, 50, 150 and 500 μM (lanes 2-8) for 15 min, then incubated with ^32P-labeled Slug probe for 30 min and visualized by EMSA. Lysates of embryos injected with Slug (lanes 10 and 11), p105 (lanes 13 and 14), MitF (lanes 16 and 17) or Lef-1 (lanes 19 and 20) mRNA were incubated with 0 or 150 μM Co(1II)-Schiff base for 15 min and labeled with ^32P-labeled Slug probe for 30 min. Uninjected embryos are presented in lanes 1, 9, 12, I5 and 18. Samples were separated by EMSA. […]

Snail = experiment: E-cadherin promoter firefly luciferase reporter (Snail transcriptional repression); format: cell-based; settings: MDA-MB-231 cells, up to 250 nM
Description: MDA-MB-231 metastatic breast cancer cells express Snail1 in the nucleus. A firefly luciferase plasmid with the E-cadherin promoter region was added upstream of the transcriptional start site Snail (SEE FIG. 7A). Binding of Snail to the E-boxes thereby repress luciferase transcription and therefore luciferase activity.

Slug [2] = target: T1, Slug; experiment: EMSA, inhibition of Slug DNA-binding in embryo lysates; format: biochemical; settings: relative to Co(III)-Ebox at 1 μM
Description: as §1, §2

Lef-1 = target: T3, Lef-1 (Homo sapiens, UniProt Q9UJU2); experiment: EMSA, inhibition of Lef-1 DNA-binding in embryo lysates; format: biochemical, Xenopus laevis; settings: high concentrations (150 μM per FIG. 4 legend)
T3 construct: 5x myc; expressed in transfected cells; host or cells: Xenopus laevis embryos injected with in vitro transcribed mRNA; whole embryo lysate
T3 sequence (Q9UJU2 whole entry, species assumed): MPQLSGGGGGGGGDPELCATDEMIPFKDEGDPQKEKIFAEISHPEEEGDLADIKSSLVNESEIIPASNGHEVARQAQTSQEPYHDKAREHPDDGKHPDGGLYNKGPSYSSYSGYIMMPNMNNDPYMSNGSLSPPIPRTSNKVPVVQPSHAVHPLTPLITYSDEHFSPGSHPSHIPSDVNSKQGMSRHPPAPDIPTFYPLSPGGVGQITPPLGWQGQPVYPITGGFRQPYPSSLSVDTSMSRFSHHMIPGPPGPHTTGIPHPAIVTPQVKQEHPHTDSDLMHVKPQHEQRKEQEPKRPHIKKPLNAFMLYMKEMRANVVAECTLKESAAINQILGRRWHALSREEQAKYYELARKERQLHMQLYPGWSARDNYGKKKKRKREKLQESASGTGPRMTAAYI
Description: as §1, §2

[Co(III)(heptanoic acido)(acacen)(NH3)2]Cl [Co(III)-Schiff base]
Inhibition of Slug function (DNA-binding) after injection in vivo (Slug [1]): not inhibited | Inhibition of p105 DNA-binding (p105): inhibited | Luciferase activity of E-cadherin promoter construct (Snail transcriptional activity) (Snail): did not affect | Excess required to achieve inhibition of Slug comparable to Co(III)-Ebox at 1 μM (Slug [2]): 150 fold | Inhibition of Lef-1 DNA-binding (Lef-1): inhibited
